Experiment [1] relates to 4T1 cells. Description: extracellular ATP release from treated 4T1 cells, luciferase/luciferin-based ATP determination kit. The format is cell-based, mouse. As to conditions: mitoxantrone 1 μM positive control; change from 4 hours to 24 hours following treatment; FIG. 18B. As to the method:
(§1) Cells then were placed in a 6 well plate for 1 hour or 20 hours. Cells with media but no NPS treatment served as negative control and a known ICD inducer, mitoxantrone (1 μM) was added to cells as a positive control. Cell surface-exposed CRT was measured by flow cytometry (FACSAria). Extracellular ATP concentrations were quantified by the luciferase/luciferin-based ATP determination Kit (A22066, Thermo-Fisher). The amount of HMGB1 in the supernatant was determined by HMGB1 ELISA Kit (MBS722248, MyBioSource).

Experiment [2] has as its system 4T1 cells. Description: cell surface calreticulin (CRT) on treated 4T1 cells, flow cytometry. The format is cell-based, mouse. As to conditions: mitoxantrone 1 μM positive control; change from 4 hours to 24 hours following treatment; FIG. 18A. As to the method:
as §1
A general note: A flow cytometer gives signals particle by particle.

From patent publication US20180154142A1, “METHODS AND DEVICES FOR TREATMENT OF TUMORS WITH NANO-PULSE STIMULATION” (Old Dominion University Research Foundation, priority 2016, published 2018) come the findings set out here.

Molecules are shown by their SMILES.

On to `O=C1c2c(O)ccc(O)c2C(=O)c2c(NCCNCCO)ccc(NCCNCCO)c21` [MXT, mitoxantrone], for which the “levels of ATP release in the supernatants” value in the experiment on 4T1 cells [1] is given as “increases”. Further, in the experiment on 4T1 cells [2], the “levels of calreticulin, mean fluorescence intensity (MFI)” value is “largest increase”.
